Measurements reported in US11267811B2, “Small molecule inhibitors of galectin-3” (BRISTOL-MYERS SQUIBB COMPANY, priority 2017, dated 2022).
Read-outs that look alike come from different tables or passages of the source.

Molecular target: His-tagged recombinant human Gal-3 (hGal-3) (Homo sapiens (Human), UniProt P17931)
Assay: Gal-3 HTRF assay (His-tagged hGal-3 binding to B-ASF);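 further: compounds preincubated 30 min with hGal-3, then 1 h with B-ASF, detection via terbium anti-His antibody and streptavidin d2. Control with B-ASF counts as full signal, omitting B-ASF as background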
[1] = HTRF, hGal-3 15 nM, B-ASF 15 nM, read-out: hGal-3 IC50

His-tagged recombinant human Gal-3 (hGal-3), sequence (P17931 whole entry): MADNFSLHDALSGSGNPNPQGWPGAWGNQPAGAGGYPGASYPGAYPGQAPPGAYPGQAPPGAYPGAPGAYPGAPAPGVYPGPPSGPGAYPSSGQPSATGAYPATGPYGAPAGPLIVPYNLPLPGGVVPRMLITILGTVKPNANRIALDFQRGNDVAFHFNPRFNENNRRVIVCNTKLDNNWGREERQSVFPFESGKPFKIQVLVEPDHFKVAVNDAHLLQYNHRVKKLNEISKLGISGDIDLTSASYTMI

IC50 (read-out: hGal3 IC50) [µM] | IC50 [1] [µM] | Compound
0.05 | – | Cc1nc2ccc(-n3ncnc3[C@@H]3O[C@H](CO)[C@H](O)[C@H](n4cc(-c5ccc(Br)c(F)c5)nn4)[C@H]3O)cc2s1 [Example 216]
0.07 | – | Cc1nc2ccc(-n3ncnc3[C@@H]3O[C@H](CO)[C@H](O)[C@H](n4cc(-c5ccc(Cl)c(F)c5)nn4)[C@H]3O)cc2s1 [Example 217]
0.02 | – | Cc1nc2ccc(-n3ncnc3[C@@H]3O[C@H](CO)[C@H](O)[C@H](n4cc(-c5cc(N)c(F)c(F)c5)nn4)[C@H]3O)cc2s1 [Example 218]
0.07 | – | CC(=O)Nc1cc(-c2cn([C@H]3[C@@H](O)[C@@H](CO)O[C@@H](c4ncnn4-c4ccc5nc(C)sc5c4)[C@@H]3O)nn2)cc(F)c1F [Example 219]
0.07 | – | CCOC(=O)Nc1cc(-c2cn([C@H]3[C@@H](O)[C@@H](CO)O[C@@H](c4ncnn4-c4ccc5nc(C)sc5c4)[C@@H]3O)nn2)cc(F)c1F [Example 220]
– | 0.05 | Cc1nc2ccc(-n3ncnc3[C@@H]3O[C@H](CO)[C@H](O)[C@H](n4cc(-c5cc(F)c(Cl)c(Cl)c5)nn4)[C@H]3O)cc2s1 [Example 221, (2R,3R,4R,5R,6S)-4-(4-(3,4-dichloro-5-fluorophenyl)-1H-1,2,3-triazol-1-yl)-2-(hydroxymethyl)-6-(1-(2-methylbenzo[d]thiazol-6-yl)-1H-1,2,4-triazol-5-yl)tetrahydro-2H-pyran-3,5-diol]
– | 0.24 | Cc1nc2ccc(-n3ncnc3[C@@H]3O[C@H](CO)[C@H](O)[C@H](n4cc(-c5cc(F)c(Cl)cc5F)nn4)[C@H]3O)cc2s1 [Example 222]
– | 0.2 | COc1ccc(-c2cn([C@H]3[C@@H](O)[C@@H](CO)O[C@@H](c4ncnn4-c4ccc5nc(C)sc5c4)[C@@H]3O)nn2)cc1F [Example 223]
– | 0.33 | Cc1nc2ccc(-n3ncnc3[C@@H]3O[C@H](CO)[C@H](O)[C@H](n4cc(-c5ccc(F)cc5)nn4)[C@H]3O)cc2s1 [Example 224, (2R,3R,4R,5R,6S)-4-(4-(4-fluorophenyl)-1H-1,2,3-triazol-1-yl)-2-(hydroxymethyl)-6-(1-(2-methylbenzo[d]thiazol-6-yl)-1H-1,2,4-triazol-5-yl)tetrahydro-2H-pyran-3,5-diol]
0.21 | – | Cc1nc2ccc(-n3ncnc3[C@@H]3O[C@H](CO)[C@H](O)[C@H](n4cc(-c5ccc(Br)cc5)nn4)[C@H]3O)cc2s1 [Example 225]
0.07 | – | Cc1nc2ccc(-n3ncnc3[C@@H]3O[C@H](CO)[C@H](O)[C@H](n4cc(-c5cc(F)c(Br)c(F)c5)nn4)[C@H]3O)cc2s1 [Example 226]
0.25 | – | Cc1nc2cc(-c3cn([C@H]4[C@@H](O)[C@@H](CO)O[C@@H](c5ncnn5-c5ccc6nc(C)sc6c5)[C@@H]4O)nn3)cc(F)c2o1 [Example 227]
0.42 | – | Cc1nc2ccc(-n3ncnc3[C@@H]3O[C@H](CO)[C@H](O)[C@H](n4cc(-c5cc(F)cc(C(F)(F)F)c5)nn4)[C@H]3O)cc2s1 [Example 228]
0.98 | – | Cc1nc2ccc(-n3ncnc3[C@@H]3O[C@H](CO)[C@H](O)[C@H](n4cc(-c5ccc(OC(F)(F)F)c(F)c5)nn4)[C@H]3O)cc2s1 [Example 229]
0.45 | – | Cc1nc2ccc(-n3ncnc3[C@@H]3O[C@H](CO)[C@H](O)[C@H](n4cc(-c5ccc(C#N)c(F)c5)nn4)[C@H]3O)cc2s1 [Example 230]
0.39 | – | Cc1nc2ccc(-n3ncnc3[C@@H]3O[C@H](CO)[C@H](O)[C@H](n4cc(-c5ccc(CC#N)c(F)c5)nn4)[C@H]3O)cc2s1 [Example 231]
0.04 | – | COc1cc(-c2cn([C@H]3[C@@H](O)[C@@H](CO)O[C@@H](c4ncnn4-c4ccc5nc(C)sc5c4)[C@@H]3O)nn2)cc(F)c1F [Example 232]
0.24 | – | COc1cc(F)c(F)cc1-c1cn([C@H]2[C@@H](O)[C@@H](CO)O[C@@H](c3ncnn3-c3ccc4nc(C)sc4c3)[C@@H]2O)nn1 [Example 233]
0.39 | – | Cc1nc2ccc(-n3ncnc3[C@@H]3O[C@H](CO)[C@H](O)[C@H](n4cc(-c5cc(F)c(C#N)cc5C)nn4)[C@H]3O)cc2s1 [Example 235]
0.24 | – | Cc1nc2ccc(-n3ncnc3[C@@H]3O[C@H](CO)[C@H](O)[C@H](n4cc(-c5cc(C)c(C#N)c(F)c5)nn4)[C@H]3O)cc2s1 [Example 236]
0.21 | – | Cc1nc2ccc(-n3ncnc3[C@@H]3O[C@H](CO)[C@H](O)[C@H](n4cc(-c5ccc(Cl)cc5)nn4)[C@H]3O)cc2s1 [Example 237]
0.16 | – | Cc1nc2ccc(-n3ncnc3[C@@H]3O[C@H](CO)[C@H](O)[C@H](n4cc(-c5cc(F)cc(Cl)c5)nn4)[C@H]3O)cc2s1 [Example 240]
– | 0.13 | Cc1nc2ccc(-n3ncnc3[C@@H]3O[C@H](CO)[C@H](O)[C@H](n4cc(-c5cc(F)c(N6CCC(O)CC6)c(F)c5)nn4)[C@H]3O)cc2s1 [Example 241, (2R,3R,4R,5R,6S)-4-(4-(3,5-difluoro-4-(4-hydroxypiperidin-1-yl)phenyl)-1H-1,2,3-triazol-1-yl)-2-(hydroxymethyl)-6-(1-(2-methylbenzo[d]thiazol-6-yl)-1H-1,2,4-triazol-5-yl)tetrahydro-2H-pyran-3,5-diol]

IC50 (read-out: hGal3 IC50) [µM] | IC50 [1] [µM] | Compound
– | 0.06 | Cc1nc2ccc(-n3ncnc3[C@@H]3O[C@H](CO)[C@H](O)[C@H](n4cc(-c5cc(F)c(N6CC(O)C6)c(F)c5)nn4)[C@H]3O)cc2s1 [Example 242]
– | 0.08 | Cc1nc2ccc(-n3ncnc3[C@@H]3O[C@H](CO)[C@H](O)[C@H](n4cc(-c5cc(F)c(N6CCOCC6)c(F)c5)nn4)[C@H]3O)cc2s1 [Example 243]
– | 0.08 | Cc1nc([C@@H]2O[C@H](CO)[C@H](O)[C@H](n3cc(-c4ccc(Cl)c(F)c4)nn3)[C@H]2O)n(-c2cccc(Cl)c2)n1 [Example 244, (2S,3R,4R,5R,6R)-4-(4-(4-chloro-3-fluorophenyl)-1H-1,2,3-triazol-1-yl)-2-(1-(3-chlorophenyl)-3-methyl-1H-1,2,4-triazol-5-yl)-6-(hydroxymethyl)tetrahydro-2H-pyran-3,5-diol]
0.03 | – | Cc1nc([C@@H]2O[C@H](CO)[C@H](O)[C@H](n3cc(-c4ccc(Cl)c(F)c4)nn3)[C@H]2O)n(-c2cc(Cl)ccc2Cl)n1 [Example 246]
0.45 | – | Cc1nc([C@@H]2O[C@H](CO)[C@H](O)[C@H](n3cc(-c4ccc(Cl)c(F)c4)nn3)[C@H]2O)n(-c2ccccc2)n1 [Example 247]
0.09 | – | Cc1nc([C@@H]2O[C@H](CO)[C@H](O)[C@H](n3cc(-c4ccc(Cl)c(F)c4)nn3)[C@H]2O)n(-c2cc(Cl)ccc2F)n1 [Example 249]
0.08 | – | COc1ccc(Cl)cc1-n1nc(C)nc1[C@@H]1O[C@H](CO)[C@H](O)[C@H](n2cc(-c3ccc(Cl)c(F)c3)nn2)[C@H]1O [Example 251]
0.11 | – | Cc1nc([C@@H]2O[C@H](CO)[C@H](O)[C@H](n3cc(-c4ccc(Cl)c(F)c4)nn3)[C@H]2O)n(-c2ccc(Cl)c(Cl)c2)n1 [Example 252]
0.08 | – | Cc1nc([C@@H]2O[C@H](CO)[C@H](O)[C@H](n3cc(-c4ccc(Cl)c(F)c4)nn3)[C@H]2O)n(-c2ccc3ncccc3c2)n1 [Example 253]
0.11 | – | Cc1nc([C@@H]2O[C@H](CO)[C@H](O)[C@H](n3cc(-c4ccc(Cl)c(F)c4)nn3)[C@H]2O)n(-c2cc(F)ccc2C(F)(F)F)n1 [Example 254]
0.07 | – | Cc1nc([C@@H]2O[C@H](CO)[C@H](O)[C@H](n3cc(-c4ccc(Cl)c(F)c4)nn3)[C@H]2O)n(-c2cc(C(F)(F)F)ccc2Cl)n1 [Example 255]
0.08 | – | Cc1nc([C@@H]2O[C@H](CO)[C@H](O)[C@H](n3cc(-c4ccc(Cl)c(F)c4)nn3)[C@H]2O)n(-c2ccc3ncsc3c2)n1 [Example 256]
– | 0.05 | CO[C@@H]1[C@@H](n2cc(-c3ccc(Cl)c(F)c3)nn2)[C@@H](O)[C@@H](CO)O[C@H]1c1nc(C)nn1-c1cc(Cl)ccc1Cl [Example 257, (2R,3R,4S,5R,6S)-4-(4-(4-chloro-3-fluorophenyl)-1H-1,2,3-triazol-1-yl)-6-(1-(2,5-dichlorophenyl)-3-methyl-1H-1,2,4-triazol-5-yl)-2-(hydroxymethyl)-5-methoxytetrahydro-2H-pyran-3-ol]
– | 0.06 | CO[C@@H]1[C@@H](n2cc(-c3ccc(Cl)c(F)c3)nn2)[C@@H](O)[C@@H](CO)O[C@H]1c1nc(C)nn1-c1cc(Cl)ccc1C [Example 258]
– | 0.05 | Cc1nc([C@@H]2O[C@H](CO)[C@H](O)[C@H](n3cc(-c4cc(F)c(Cl)c(F)c4)nn3)[C@H]2O)n(-c2cc(Cl)ccc2Cl)n1 [Example 260]
– | 0.02 | Cc1nc([C@@H]2O[C@H](CO)[C@H](O)[C@H](n3cc(-c4cc(F)c(Cl)c(F)c4)nn3)[C@H]2O)n(-c2cc(Cl)ccc2C)n1 [Example 261]
0.1 | – | Cc1nc([C@H]2C[C@@H](n3cc(-c4cc(F)c(Cl)c(F)c4)nn3)[C@@H](O)[C@@H](CO)O2)n(-c2cc(Cl)ccc2Cl)n1 [Example 262]
0.12 | – | Cc1nc([C@H]2C[C@@H](n3cc(-c4cc(F)c(Cl)c(F)c4)nn3)[C@@H](O)[C@@H](CO)O2)n(-c2cc(Cl)ccc2C)n1 [Example 263]
0.03 | – | Cc1nc([C@H]2C[C@@H](n3cc(-c4cc(F)c(Cl)c(F)c4)nn3)[C@@H](O)[C@@H](CO)O2)n(-c2ccc3ncsc3c2)n1 [Example 265]
– | 0.06 | CCc1nc([C@@H]2O[C@H](CO)[C@H](O)[C@H](n3cc(-c4cc(F)c(F)c(F)c4)nn3)[C@H]2O)n(-c2ccc3nc(C)sc3c2)n1 [Example 267]
– | 0.12 | Cc1nc2ccc(-n3nc(CC(N)=O)nc3[C@@H]3O[C@H](CO)[C@H](O)[C@H](n4cc(-c5cc(F)c(F)c(F)c5)nn4)[C@H]3O)cc2s1 [Example 268]
– | 0.33 | Cc1nc2ccc(-n3nc(C(=O)O)nc3[C@H]3C[C@@H](n4cc(-c5cccc(F)c5)nn4)[C@@H](O)[C@@H](CO)O3)cc2s1 [Example 269, 5-((2R,4R,5R,6R)-4-(4-(3-fluorophenyl)-1H-1,2,3-triazol-1-yl)-5-hydroxy-6-(hydroxymethyl)tetrahydro-2H-pyran-2-yl)-1-(2-methylbenzo[d]thiazol-6-yl)-1H-1,2,4-triazole-3-carboxylic acid]
